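Protocol summary: plate cells (96-well), add compound at 5 concentrations, incubate 48 h, interpolate endpoints linearly. The concentration for 50% growth inhibition is given as GI50.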 The source made the active and inactive calls. Cut-off read from the data, not from the text of the source: active = GI50 up to about 1.1 µM and inactive = higher.
Columns and labels:
Experiment in all cases: NCI-60 cell line screen, 48 h
DU-145 = tested on: DU-145
SF-268 = tested on: SF-268
RXF 393 = tested on: RXF 393
SK-MEL-5 = tested on: SK-MEL-5
NCI/ADR-RES = tested on: NCI/ADR-RES
BT-549 = tested on: BT-549
PC-3 = tested on: PC-3
MDA-N = tested on: MDA-N
NCI-H23 = tested on: NCI-H23
LOX IMVI = tested on: LOX IMVI
SR = tested on: SR
A498 = tested on: A498
HL-60 = tested on: HL-60
HCC 2998 = tested on: HCC 2998
HCT-116 = tested on: HCT-116
K562 = tested on: K562
HT-29 = tested on: HT-29
SK-MEL-28 = tested on: SK-MEL-28
OVCAR-3 = tested on: OVCAR-3
ACHN = tested on: ACHN

Measured: GI50

CNC(=O)OCC1=C(COC(=O)NC)C(C)N(c2ccccc2)C1 (stereo not given)
inactive: DU-145 54.5 µM | SF-268 37.7 µM | RXF 393 28.4 µM | SK-MEL-5 17.1 µM | NCI/ADR-RES 46.5 µM | BT-549 50.9 µM | PC-3 40.5 µM | MDA-N 33.8 µM | NCI-H23 38.1 µM | LOX IMVI 32.7 µM | SR 24.5 µM | A498 3.05 µM | HL-60 21.7 µM | HCC 2998 25.2 µM | HCT-116 39.9 µM | K562 26.7 µM | HT-29 22.6 µM | SK-MEL-28 35.3 µM | OVCAR-3 30.4 µM | ACHN 33.7 µM

CN(C)CC1CN(C(=O)Nc2ccccc2)C(=N)O1 (stereo not given)
inactive: DU-145 38.2 µM | SF-268 > 100 µM | RXF 393 > 100 µM | SK-MEL-5 > 100 µM | NCI/ADR-RES > 100 µM | BT-549 > 100 µM | PC-3 > 100 µM | MDA-N 83.2 µM | NCI-H23 > 100 µM | LOX IMVI > 100 µM | SR > 100 µM | A498 > 100 µM | HL-60 > 100 µM | HCC 2998 > 100 µM | HCT-116 > 100 µM | K562 > 100 µM | HT-29 > 100 µM | SK-MEL-28 > 100 µM | OVCAR-3 > 100 µM | ACHN > 100 µM

CC1=NN(C(=O)c2ccncc2)C(=O)C1/N=N/c1ccc2ccccc2c1 (stereo not given)
inactive: DU-145 > 73.5 µM | SF-268 69 µM | RXF 393 > 100 µM | SK-MEL-5 19.2 µM | NCI/ADR-RES 13.7 µM | BT-549 > 100 µM | PC-3 > 100 µM | MDA-N 2.94 µM | NCI-H23 > 64.3 µM | LOX IMVI 30.1 µM | SR 5.3 µM | A498 > 100 µM | HL-60 1.71 µM | HCC 2998 3.03 µM | HCT-116 32.7 µM | K562 5.46 µM | HT-29 11.7 µM | SK-MEL-28 > 100 µM | OVCAR-3 28.1 µM | ACHN > 100 µM

O=C(O)C1=C(C(=O)O)N(c2ccncc2)C(c2ccco2)=CC1c1ccccc1[N+](=O)[O-] (stereo not given)
inactive: DU-145 12.1 µM | SF-268 13.1 µM | RXF 393 7.94 µM | SK-MEL-5 5.82 µM | NCI/ADR-RES 22.6 µM | BT-549 13.2 µM | PC-3 13.4 µM | MDA-N 5.56 µM | NCI-H23 12.4 µM | LOX IMVI 2.01 µM | SR 2.03 µM | A498 11.8 µM | HL-60 2.88 µM | HCC 2998 1.9 µM | HCT-116 1.83 µM | K562 2.85 µM | HT-29 2.18 µM | SK-MEL-28 16.2 µM | OVCAR-3 8.17 µM | ACHN 1.72 µM
